“Also recorded” adds a separate entry of the source.
What was measured:
Format in all cases: cell-based
[1] = target: 3R Shaker K channel (Drosophila melanogaster, UniProt P08510, A359R/M356R); test: physchem; conditions: for compound-induced G(V) shift (mean±SEM) / G(V) shift: pH 7.4, Xenopus oocytes; for G(V) shift: Table 1; for Effects on K channel Mean ± SEM: Table 2, K channel expressed in Xenopus oocytes; for relative current amplitude: representative traces at voltage giving 10% of maximum conductance in control; for ΔG(V) of representative G(V) curves (single examples): pH 7.4, same cells as representative traces
3R Shaker K channel, sequence (P08510 whole entry M356R/A359R): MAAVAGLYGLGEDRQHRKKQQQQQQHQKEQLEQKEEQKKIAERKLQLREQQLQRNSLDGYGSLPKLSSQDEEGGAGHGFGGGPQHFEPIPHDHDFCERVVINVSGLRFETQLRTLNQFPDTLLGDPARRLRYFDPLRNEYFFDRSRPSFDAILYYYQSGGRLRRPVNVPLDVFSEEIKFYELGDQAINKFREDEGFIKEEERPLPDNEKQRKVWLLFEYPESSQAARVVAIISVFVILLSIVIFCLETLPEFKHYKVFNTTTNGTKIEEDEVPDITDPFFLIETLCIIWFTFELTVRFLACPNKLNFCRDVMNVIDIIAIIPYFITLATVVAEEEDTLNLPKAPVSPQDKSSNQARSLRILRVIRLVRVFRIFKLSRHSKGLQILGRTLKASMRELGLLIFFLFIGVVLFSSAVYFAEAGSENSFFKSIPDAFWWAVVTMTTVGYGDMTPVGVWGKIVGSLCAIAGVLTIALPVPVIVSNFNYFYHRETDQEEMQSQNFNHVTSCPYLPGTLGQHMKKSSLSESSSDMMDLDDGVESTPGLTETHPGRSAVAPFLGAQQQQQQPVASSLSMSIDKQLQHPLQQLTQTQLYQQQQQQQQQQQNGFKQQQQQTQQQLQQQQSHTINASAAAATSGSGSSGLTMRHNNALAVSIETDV
Text: A 3R Shaker K channel is a modified Shaker K channel where residues 356 and 359 are mutated to arginines.
(§1) All animal experiments were approved by the local Animal Care and Use Committee and followed international guidelines. A modified Shaker H4 channel^30, with removed N-type inactivation (ShH4IR)^31, here called the wild type (WT) channel, was expressed in oocytes. In addition, a modified 3R Shaker K channel where two introduced positive charged arginines (M356R and A359R) in addition to one native arginine (R362) makes the channel more sensitive to DHA^16, was expressed in oocytes and in a CHO—K1 stable cell line.
(§2) African clawed frogs (Xenopus laevis) were anesthetized with 1.4 g/L ethyl 3-aminobenzoate methanesulfonate salt (tricaine). After an incision through the abdomen a batch of oocytes were removed. Clusters of oocytes were separated by incubation for ˜1 h in a Ca-free O—R2 solution (in mM: 82.5 NaCl, 2 KCl, 5 HEPES, and 1 MgCl2; pH adjusted to 7.4 by NaOH) containing Liberase Blendzyme. The oocytes were then incubated at 8° C. in a modified Barth's solution (MBS; in mM: 88 NaCl, 1 KCl, 2.4 NaHCO3, 15 HEPES, 0.33 Ca(NO3)2, 0.41 CaCl2, and 0.82 MgSO4; pH adjusted to 7.6 by NaOH) supplemented with penicillin (25 U/ml), streptomycin (25 μg/ml), and sodium pyruvate (2.5 mM) 2-24 hours before injection. Fifty nl of cRNA (50 pg) were injected into each oocyte using a Nanoject injector (Drummond Scientific, Broomall, Pa.). Injected oocytes were kept at 8° C. in MBS until one day before electrophysiological recordings, when they were incubated at 16° C. All chemicals were supplied from Sigma-Aldrich (Stockholm, Sweden) if not stated otherwise.
(§3) All manual electrophysiological recordings were performed at room temperature (20-23° C.), using a GeneClamp 500B amplifier (for oocytes) or a Axopatch 200B amplifier (for manual patch clamp of CHO—K1 cells and DRG neurons) and a Digidata 1440A digitizer and pClamp 10 software (all from Molecular Devices, Inc., Sunnyvale, Calif., USA). Compounds were dissolved to 100 mM in 99.5% EtOH and stored at −20° C. Compounds were diluted in extracellular solution to the desired test concentration.
(§4) The oocyte was placed in a bath surrounded by 1K extracellular solution that contained (in mM): 88 NaCl, 1 KCl, 15 HEPES, 0.4 CaCl2, and 0.8 MgCl2, pH adjusted to 7.4 by NaOH (reaching a sodium concentration of ˜100 mM). Control solution was added to the bath with a gravity driven perfusion system. Compound solution was added to the bath manually with a syringe. Two glass microelectrodes were inserted into the oocyte using micromanipulators. […] All channels were closed when the potential was clamped to −80 mV and this voltage was set as the holding potential. Currents were evoked from the holding potential of −80 mV by 100-ms long, 5-mV steps ranging from −80 up to +50 mV (WT) and +70 mV (3R).
(§5) Conductance GK(V) was calculated as GK(V)=[…], (Eq. 1) where IK is the average current from the steady-state phase at the end of each 100-ms pulse, V is the membrane voltage, and Vrev is the reversal potential for K^+, (set to −80 mV for the oocytes, and calculated to be −89 mV for the CHO—K1 cells).
(§6) G(V)=A/(1+exp((V1/2−V)/s))^n (Eq. 2) where A is amplitude of the curve, V is the absolute membrane voltage, V1/2 is the midpoint, s is the slope and n is an exponent set to 4^17. The compound-induced G(V) shift was determined at the 10% level of the maximum conductance in control solution^17. The compound-induced G(V) shift in CHO—K1 was quantified by subtracting the control V1/2 from the compound V1/2 when n was set to 1.
(§7) Data for concentration and pH dependent G(V) shifts (ΔV) in oocytes were fit with a dose-response equation ΔV=ΔVmax/(1+c1/2/c), (Eq. 3) where Δvmax is the maximal shift, c1/2 is half maximal effective concentration/pKa value and c is the concentration.

[2] = tested on: HL-1 cells; test: Membrane potential and firing of spontaneously beating HL-1 cells, whole-cell current clamp; conditions: 10 uM
Experimental: All conventional chemicals were purchased from Sigma-Aldrich (Stockholm, Sweden). The DHAA derivatives were diluted in ethanol in a 100 mM stock solution. The stock solutions were stored at −20 t for further use.
The cell culture was done according to a previous study (Claycomb et al., Proceedings of the National Academy of Sciences of the United States of America 1998; 95:2979-2984). In brief, cells were grown on gelating fibronectin coated T75 flasks. They were maintained in Claycomb Medium which was supplemented with 10% fetal bovine serum, 2 mM L-glutamine, 0.1 mM noradrenaline, and 100 U/ml, 100 μg/ml penicillin-streptomycin. Enzymatic dissociation with 0.05% trypsin-EDTA was done after full confluence. Isolated cells were plated on fibronectin-gelatin coated plastic coverslips and used for recording.
Whole-cell current-clamp recordings were done on confluent cells at 35±1° C., using an Axopatch 200B amplifier (Molecular Devices, Sunnyvale, Calif.). Patch pipettes were fabricated from borosilicate capillary glass on a vertical pipette puller and had resistances of 3-5 MO. Data were stored on a computer through Digidata 1440A interface (Molecular Devices), and was analyzed with pCLAMP software (version 10.1, Molecular Devices). The bath solution contained the following (in mM): 140 NaCl, 5.4 KCl, 1 MgCl2, 1.8 CaCl2, 10 HEPES, and 10 glucose (pH adjusted to 7.4 with NaOH). The micropipettes were filled with a solution containing (in mM): 130 K-gluconate, 9 KCl, 8 NaCl, 1 MgCl2, 10 EGTA, 10 HEPES, and 3 Na2ATP (pH adjusted to 7.3 with KOH).

[3] = target: WT Shaker K channel (Drosophila melanogaster, UniProt P08510, DEL6-46); test: physchem; conditions: 100 μM; for G(V) shift for WT: pH 7.4, Xenopus oocytes
WT Shaker K channel, sequence (P08510 other isoform, or with tags, fused parts or gaps DEL6-46): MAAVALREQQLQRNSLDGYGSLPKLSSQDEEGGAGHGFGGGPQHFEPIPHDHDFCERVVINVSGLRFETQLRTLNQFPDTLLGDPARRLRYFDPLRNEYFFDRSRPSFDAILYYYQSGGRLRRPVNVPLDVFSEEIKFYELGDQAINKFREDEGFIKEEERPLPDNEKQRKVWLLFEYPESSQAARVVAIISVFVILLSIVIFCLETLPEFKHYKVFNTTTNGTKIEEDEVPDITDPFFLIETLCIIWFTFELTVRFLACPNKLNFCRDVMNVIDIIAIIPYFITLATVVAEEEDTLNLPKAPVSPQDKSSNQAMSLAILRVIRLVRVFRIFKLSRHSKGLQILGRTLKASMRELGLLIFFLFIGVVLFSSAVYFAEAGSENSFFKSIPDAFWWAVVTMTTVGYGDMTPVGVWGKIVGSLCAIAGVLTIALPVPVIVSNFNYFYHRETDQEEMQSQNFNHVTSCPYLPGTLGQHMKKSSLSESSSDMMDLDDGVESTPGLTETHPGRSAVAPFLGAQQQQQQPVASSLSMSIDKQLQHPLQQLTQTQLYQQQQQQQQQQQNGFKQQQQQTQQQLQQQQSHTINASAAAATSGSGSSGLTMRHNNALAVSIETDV
Text: A Shaker K channel is a Kv channel from the fruit fly Drosophila melanogaster. It is homologous to the human Kv1-type ion channels.
as §1, §2, §3, §4, §5, §6, §7

## C=CCO/N=C1\CC2[C@](C)(C(=O)O)CCC[C@]2(C)c2ccc(C(C)C)cc21 (stereo partly shown) [Compound K8]
[1]; 100 μM
  compound-induced G(V) shift (mean±SEM): −17.8±1.9 mV
  G(V) shift: −17.8 mV
[1]; C7-modified DHAA, 100 μM, pH 7.4
  effect on G(V) shift / current compared with DHAA: significantly increased the effect
[1]
  Effects on K channel Mean ± SEM: −17.8 ± 1.9 mV
[1]; 100 μM, pH 7.4
  relative current amplitude: 7.6 times
[2]
  Effects on HL-1 cells Mean (membrane potential): −3.6 mV

## CC(C)c1ccc2c(c1)CC[C@H]1[C@](C)(C(=O)O)CCC[C@]21C [DHAA, dehydroabietic acid]
[1]
  Kd: 89 µM
[1]; Drosophila melanogaster, from pH dependence of G(V) shift, 100 μM
  pKa: 7.3
[3]; Drosophila melanogaster, from pH dependence of G(V) shift
  pKa: 7.2

## CC/C=C\C/C=C\C/C=C\C/C=C\C/C=C\C/C=C\CCC(=O)O [DHA]
[3]
  G(V) shift for WT: −6.0 mV

## C=C[C@@]1(C)CC[C@H]2C(=CC[C@@H]3[C@]2(C)CCC[C@@]3(C)C(=O)O)C1 [Iso-PiMA, isopimaric acid, reference compound]
[1]; 100 μM
  compound-induced G(V) shift (mean±SEM): −15.9±1.8 mV
  ΔG(V) of representative G(V) curves (single examples): −20.0 mV
[1]; 100 μM, pH 7.4
  relative current amplitude: 5.7 times
[3]
  G(V) shift for WT: much smaller effects on WT compared to the 3R Shaker K channel

## C=C[C@@]1(C)C=C2CC[C@@H]3[C@](C)(CCC[C@@]3(C)C(=O)O)[C@H]2CC1 [PiMA, pimaric acid, reference compound]
[1]; 100 μM
  compound-induced G(V) shift (mean±SEM): −10.4±0.8 mV
  ΔG(V) of representative G(V) curves (single examples): −10.8 mV
[1]; 100 μM, pH 7.4
  relative current amplitude: 2.4 times
[3]
  G(V) shift for WT: much smaller effects on WT compared to the 3R Shaker K channel

## C[C@]1(C(=O)O)CCC[C@]2(C)c3cc(O)ccc3CC[C@@H]12 [PoCA, podocarpic acid, reference compound]
[1]; 100 μM
  ΔG(V) of representative G(V) curves (single examples): +0.1 mV
[1]; 100 μM, pH 7.4
  relative current amplitude: 1.0 times
[3]
  G(V) shift for WT: not significantly different from the 3R Shaker K channel

## CC(C)c1ccc2c(c1Br)CCC1[C@](C)(C(=O)O)CCC[C@]21C (stereo partly drawn) [Wu26, (1R,4aS)-8-bromo-7-isopropyl-1,4a-dimethyl-1,2,3,4,4a,9,10,10a-octahydrophenanthrene-1-carboxylic acid]
[1]; 100 μM
  G(V) shift: −21.8 mV
[1]
  Effects on K channel Mean ± SEM: −21.8 ± 0.8 mV
[2]
  Effects on HL-1 cells Mean (membrane potential): −4.7 mV

## CO/N=C1\CC2[C@](C)(C(=O)O)CCC[C@]2(C)c2cc(Cl)c(C(C)C)cc21 (stereo partly drawn) [Wu69, (1R,4aS,E)-6-chloro-7-isopropyl-9-methoxyimino-1,4a-dimethyl-1,2,3,4,4a,9,10,10a-octahydrophenanthrene-1-carboxylic acid]
[1]; 100 μM
  compound-induced G(V) shift (mean±SEM): one of the most potent substances on the Shaker K 3R channel
  G(V) shift: −28.1 mV
[1]
  Effects on K channel Mean ± SEM: −28.1 ± 1.7 mV
[2]
  Effects on HL-1 cells Mean (membrane potential): −9.3 mV
  effect on firing frequency of HL-1 cells: reduced the frequency; also recorded: frequency is reduced
  effect on membrane potential of HL-1 cells: hyperpolarized the membrane potential; also recorded: interspike membrane potential is made more negative; also recorded: most potent substance on the HL-1 cells

## C=CCO/N=C1\CC2[C@](C)(C(=O)O)CCC[C@]2(C)c2cc(C=C)c(C(C)C)cc21 (stereo partly drawn) [Wu120, (1R,4aS,E)-9-((allyloxy)imino)-7-isopropyl-1,4a-dimethyl-6-vinyl-1,2,3,4,4a,9,10,10a-octahydrophenanthrene-1-carboxylic acid]
[1]; 100 μM
  G(V) shift: −26.1 mV

## CC(C)c1cc2c(cc1C1CC1)[C@@]1(C)CCC[C@@](C)(C(=O)O)C1CC2=O (stereo partly drawn) [Wu121, (1R,4aS)-6-cyclopropyl-7-isopropyl-1,4a-dimethyl-9-oxo-1,2,3,4,4a,9,10,10a-octahydrophenanthrene-1-carboxylic acid]
[1]; 100 μM
  G(V) shift: −6.7 mV

## CO/N=C1\CC2[C@](C)(C(=O)O)CCC[C@]2(C)c2cc(C3CC3)c(C(C)C)cc21 (stereo partly drawn) [Wu122, (1R,4aS,E)-6-cyclopropyl-7-isopropyl-9-(methoxyimino)-1,4a-dimethyl-1,2,3,4,4a,9,10,10a-octahydrophenanthrene-1-carboxylic acid]
[1]; 100 μM
  G(V) shift: −32.3 mV

## C=CCO/N=C1\CC2[C@](C)(C(=O)O)CCC[C@]2(C)c2cc(C3CC3)c(C(C)C)cc21 (stereo partly drawn) [Wu123, (1R,4aS,E)-9-((allyloxy)imino)-6-cyclopropyl-7-isopropyl-1,4a-dimethyl-1,2,3,4,4a,9,10,10a-octahydrophenanthrene-1-carboxylic acid]
[1]; 100 μM
  G(V) shift: −26.3 mV

## CC(C)c1ccc2c(c1-c1ccccc1)CC[C@H]1[C@](C)(C(=O)O)CCC[C@]21C [Wu124]
[1]; 100 μM
  G(V) shift: −0.4 mV

## CC(C)c1ccc2c(c1C1CC1)CC[C@H]1[C@](C)(C(=O)O)CCC[C@]21C [Wu127]
[1]; 100 μM
  G(V) shift: −9.6 mV

## C[C@]1(C(=O)O)CCC[C@]2(C)c3ccccc3CCC12 (stereo partly drawn) [Wu129, (1S,4aS)-1,4a-dimethyl-1,2,3,4,4a,9,10,10a-octahydrophenanthrene-1-carboxylic acid]
[1]; 100 μM
  G(V) shift: −5.1 mV

## C[C@@]1(C(=O)O)CCC[C@]2(C)c3c(Cl)c(Cl)c(Cl)c(Cl)c3CCC12 (stereo partly drawn) [Wu133, (1R,4aS)-5,6,7,8-tetrachloro-1,4a-dimethyl-1,2,3,4,4a,9,10,10a-octahydrophenanthrene-1-carboxylic acid]
[1]; 100 μM
  G(V) shift: −25.6 mV

## C[C@]1(C(=O)O)CCC[C@]2(C)c3cc(Cl)ccc3CCC12 (stereo partly drawn) [Wu135, (1S,4aS)-6-chloro-1,4a-dimethyl-1,2,3,4,4a,9,10,10a-octahydrophenanthrene-1-carboxylic acid]
[1]; 100 μM
  G(V) shift: −12.0 mV

## C[C@]1(C(=O)O)CCC[C@]2(C)c3ccc(Cl)cc3CCC12 (stereo partly drawn) [Wu136, (1S,4aS)-7-chloro-1,4a-dimethyl-1,2,3,4,4a,9,10,10a-octahydrophenanthrene-1-carboxylic acid]
[1]; 100 μM
  G(V) shift: −17.8 mV

Source: patent US20180193294A1, “Dehydroabietic acid (DHAA) derivatives for use as ion channel openers” (priority 2015, published 2018)
